# PubChem BioAssay (NCI)
#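 Five compound concentrations were applied to cells in 96-well plates for 48 hours; endpoints were derived by simple linear interpolation of the resulting dose-response curve. The concentration for full growth arrest is given as TGI.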
# How the values were obtained:
# Assay in all cases: NCI-60 cell line screen, 48 h
# 786-0 renal = test system: 786-0 renal
# A498 renal = test system: A498 renal
# A549 NSCLC = test system: A549 NSCLC
# ACHN renal = test system: ACHN renal
# CCRF-CEM leukemia = test system: CCRF-CEM leukemia
# COLO 205 colon = test system: COLO 205 colon
# DLD-1 colon = test system: DLD-1 colon
# DMS 114 small cell lung = test system: DMS 114 small cell lung
# DMS 273 small cell lung = test system: DMS 273 small cell lung
# EKVX NSCLC = test system: EKVX NSCLC
# HCT-116 colon = test system: HCT-116 colon
# HCT-15 colon = test system: HCT-15 colon
# HL-60(TB) leukemia = test system: HL-60(TB) leukemia
# HOP-18 NSCLC = test system: HOP-18 NSCLC
# HOP-62 NSCLC = test system: HOP-62 NSCLC
# HOP-92 NSCLC = test system: HOP-92 NSCLC
# HT29 colon = test system: HT29 colon
# IGROV1 ovarian = test system: IGROV1 ovarian
# K-562 leukemia = test system: K-562 leukemia
# KM12 colon = test system: KM12 colon
# KM20L2 colon = test system: KM20L2 colon
# LOX IMVI melanoma = test system: LOX IMVI melanoma
# LXFL 529 NSCLC = test system: LXFL 529 NSCLC
# M14 melanoma = test system: M14 melanoma
# M19-MEL melanoma = test system: M19-MEL melanoma
# MOLT-4 leukemia = test system: MOLT-4 leukemia
# NCI-H226 lung = test system: NCI-H226 lung
# NCI-H23 lung = test system: NCI-H23 lung
# NCI-H460 lung = test system: NCI-H460 lung
# NCI-H522 lung = test system: NCI-H522 lung
# OVCAR-4 ovarian = test system: OVCAR-4 ovarian
# OVCAR-5 ovarian = test system: OVCAR-5 ovarian
# OVCAR-8 ovarian = test system: OVCAR-8 ovarian
# RPMI-8226 leukemia = test system: RPMI-8226 leukemia
# RXF 393 renal = test system: RXF 393 renal
# SF-268 CNS = test system: SF-268 CNS
# SF-295 CNS = test system: SF-295 CNS
# SF-539 CNS = test system: SF-539 CNS
# SK-MEL-28 melanoma = test system: SK-MEL-28 melanoma
# SK-MEL-5 melanoma = test system: SK-MEL-5 melanoma
# SN12C renal = test system: SN12C renal
# SNB-19 CNS = test system: SNB-19 CNS
# SNB-75 CNS = test system: SNB-75 CNS
# SNB-78 CNS = test system: SNB-78 CNS
# SR leukemia = test system: SR leukemia
# SW-620 colon = test system: SW-620 colon
# U251 CNS = test system: U251 CNS
# UACC-257 melanoma = test system: UACC-257 melanoma
# UACC-62 melanoma = test system: UACC-62 melanoma
# CAKI-1 renal = test system: CAKI-1 renal
# HCC-2998 colon = test system: HCC-2998 colon
# MALME-3M melanoma = test system: MALME-3M melanoma
# OVCAR-3 ovarian = test system: OVCAR-3 ovarian
# SK-MEL-2 melanoma = test system: SK-MEL-2 melanoma
# SK-OV-3 ovarian = test system: SK-OV-3 ovarian
# TK-10 renal = test system: TK-10 renal
# UO-31 renal = test system: UO-31 renal
smiles,measurement,setting,value
CSC(=S)N(C)NC(=O)c1cccc(C(=O)NN(C)C(=S)SC)n1,TGI,786-0 renal,91.8 µM
same,TGI,A498 renal,> 100 µM
same,TGI,A549 NSCLC,89 µM
same,TGI,ACHN renal,> 100 µM
same,TGI,CCRF-CEM leukemia,> 100 µM
same,TGI,COLO 205 colon,> 100 µM
same,TGI,DLD-1 colon,> 100 µM
same,TGI,DMS 114 small cell lung,17 µM
same,TGI,DMS 273 small cell lung,54.1 µM
same,TGI,EKVX NSCLC,> 100 µM
same,TGI,HCT-116 colon,> 100 µM
same,TGI,HCT-15 colon,> 100 µM
same,TGI,HL-60(TB) leukemia,48.3 µM
same,TGI,HOP-18 NSCLC,> 100 µM
same,TGI,HOP-62 NSCLC,37.3 µM
same,TGI,HOP-92 NSCLC,55 µM
same,TGI,HT29 colon,> 100 µM
same,TGI,IGROV1 ovarian,49.9 µM
same,TGI,K-562 leukemia,> 100 µM
same,TGI,KM12 colon,> 100 µM
same,TGI,KM20L2 colon,> 100 µM
same,TGI,LOX IMVI melanoma,> 100 µM
same,TGI,LXFL 529 NSCLC,> 100 µM
same,TGI,M14 melanoma,> 100 µM
same,TGI,M19-MEL melanoma,> 100 µM
same,TGI,MOLT-4 leukemia,> 100 µM
same,TGI,NCI-H226 lung,81.5 µM
same,TGI,NCI-H23 lung,> 100 µM
same,TGI,NCI-H460 lung,> 100 µM
same,TGI,NCI-H522 lung,40.1 µM
same,TGI,OVCAR-4 ovarian,41 µM
same,TGI,OVCAR-5 ovarian,> 100 µM
same,TGI,OVCAR-8 ovarian,> 100 µM
same,TGI,RPMI-8226 leukemia,> 100 µM
same,TGI,RXF 393 renal,74.4 µM
same,TGI,SF-268 CNS,43.9 µM
same,TGI,SF-295 CNS,16 µM
same,TGI,SF-539 CNS,70.1 µM
same,TGI,SK-MEL-28 melanoma,> 100 µM
same,TGI,SK-MEL-5 melanoma,> 100 µM
same,TGI,SN12C renal,92 µM
same,TGI,SNB-19 CNS,> 100 µM
same,TGI,SNB-75 CNS,98 µM
same,TGI,SNB-78 CNS,> 100 µM
same,TGI,SR leukemia,> 100 µM
same,TGI,SW-620 colon,> 100 µM
same,TGI,U251 CNS,54.6 µM
same,TGI,UACC-257 melanoma,56.9 µM
same,TGI,UACC-62 melanoma,55.8 µM
CCOC(=O)c1c(-c2[nH]c(C(=O)OCc3ccccc3)c(C)c2C(=O)OCC)[nH]c(C(=O)OCc2ccccc2)c1C,TGI,786-0 renal,> 100 µM
same,TGI,A498 renal,> 100 µM
same,TGI,A549 NSCLC,> 100 µM
same,TGI,ACHN renal,> 100 µM
same,TGI,CAKI-1 renal,> 100 µM
same,TGI,COLO 205 colon,> 100 µM
same,TGI,DLD-1 colon,> 100 µM
same,TGI,DMS 114 small cell lung,> 100 µM
same,TGI,DMS 273 small cell lung,> 100 µM
same,TGI,EKVX NSCLC,> 100 µM
same,TGI,HCC-2998 colon,> 100 µM
same,TGI,HCT-116 colon,> 100 µM
same,TGI,HCT-15 colon,> 100 µM
same,TGI,HOP-18 NSCLC,> 100 µM
same,TGI,HOP-62 NSCLC,> 100 µM
same,TGI,HOP-92 NSCLC,> 100 µM
same,TGI,HT29 colon,> 100 µM
same,TGI,IGROV1 ovarian,> 100 µM
same,TGI,KM20L2 colon,> 100 µM
same,TGI,LOX IMVI melanoma,> 100 µM
same,TGI,LXFL 529 NSCLC,> 100 µM
same,TGI,M14 melanoma,> 100 µM
same,TGI,M19-MEL melanoma,> 100 µM
same,TGI,MALME-3M melanoma,> 100 µM
same,TGI,MOLT-4 leukemia,> 100 µM
same,TGI,NCI-H226 lung,> 100 µM
same,TGI,NCI-H460 lung,> 100 µM
same,TGI,NCI-H522 lung,> 100 µM
same,TGI,OVCAR-3 ovarian,> 100 µM
same,TGI,OVCAR-5 ovarian,> 100 µM
same,TGI,OVCAR-8 ovarian,> 100 µM
same,TGI,RPMI-8226 leukemia,> 100 µM
same,TGI,RXF 393 renal,86.2 µM
same,TGI,SF-268 CNS,> 100 µM
same,TGI,SF-295 CNS,> 100 µM
same,TGI,SF-539 CNS,> 100 µM
same,TGI,SK-MEL-2 melanoma,> 100 µM
same,TGI,SK-MEL-28 melanoma,> 100 µM
same,TGI,SK-MEL-5 melanoma,> 100 µM
same,TGI,SK-OV-3 ovarian,> 100 µM
same,TGI,SN12C renal,> 100 µM
same,TGI,SNB-75 CNS,77.2 µM
same,TGI,SNB-78 CNS,> 100 µM
same,TGI,SR leukemia,> 100 µM
same,TGI,SW-620 colon,> 100 µM
same,TGI,TK-10 renal,> 100 µM
same,TGI,U251 CNS,> 100 µM
same,TGI,UACC-62 melanoma,> 100 µM
same,TGI,UO-31 renal,> 100 µM
